Structures can show the parent of a compound that is named as a salt.
Key:
TCC-SUP = test: cells; type: functional, cell-based, Homo sapiens; details: Homo sapiens, TCC-SUP
Description: SANGER: Inhibition of human TCCSUP cell growth in a cell viability assay.

SCC-3 = test: cells; type: functional, cell-based, Homo sapiens; details: Homo sapiens, SCC-3
Description: SANGER: Inhibition of human SCC-3 cell growth in a cell viability assay.

SCLC-21H = test: cells; type: functional, cell-based, Homo sapiens; details: Homo sapiens, SCLC-21H
Description: SANGER: Inhibition of human SCLC-21H cell growth in a cell viability assay.

U-118-MG = test: cells; type: functional, cell-based, Homo sapiens; details: Homo sapiens, U-118-MG
Description: SANGER: Inhibition of human U-118-MG cell growth in a cell viability assay.

THP-1 = test: cells; type: functional, cell-based, Homo sapiens; details: Homo sapiens, THP-1
Description: SANGER: Inhibition of human THP-1 cell growth in a cell viability assay.

KYSE-510 = test: cells; type: functional, cell-based, Homo sapiens; details: Homo sapiens, KYSE-510
Description: SANGER: Inhibition of human KYSE-510 cell growth in a cell viability assay.

NCI-H748 = test: cells; type: functional, cell-based, Homo sapiens; details: Homo sapiens, NCI-H748
Description: SANGER: Inhibition of human NCI-H748 cell growth in a cell viability assay.

OVCAR-8 = test: cells; type: functional, cell-based, Homo sapiens; details: Homo sapiens, OVCAR-8
Description: SANGER: Inhibition of human OVCAR-8 cell growth in a cell viability assay.

KYSE-180 = test: cells; type: functional, cell-based, Homo sapiens; details: Homo sapiens, KYSE-180
Description: SANGER: Inhibition of human KYSE-180 cell growth in a cell viability assay.

KYSE-70 cell line = test: cells; type: functional, cell-based, Homo sapiens; details: Homo sapiens, KYSE-70
Description: SANGER: Inhibition of human KYSE-70 cell growth in a cell viability assay.

SW626 = test: cells; type: functional, cell-based, Homo sapiens; details: Homo sapiens, SW626
Description: SANGER: Inhibition of human SW626 cell growth in a cell viability assay.

YKG-1 = test: cells; type: functional, cell-based, Homo sapiens; details: Homo sapiens, YKG-1
Description: SANGER: Inhibition of human YKG-1 cell growth in a cell viability assay.

SUP-T1 = test: cells; type: functional, cell-based, Homo sapiens; details: Homo sapiens, SUP-T1
Description: SANGER: Inhibition of human SUP-T1 cell growth in a cell viability assay.

NCI-H522 = test: cells; type: functional, cell-based, Homo sapiens; details: Homo sapiens, NCI-H522
Description: SANGER: Inhibition of human NCI-H522 cell growth in a cell viability assay.

SNU-423 = test: cells; type: functional, cell-based, Homo sapiens; details: Homo sapiens, SNU-423
Description: SANGER: Inhibition of human SNU-423 cell growth in a cell viability assay.

NCI-H719 = test: cells; type: functional, cell-based, Homo sapiens; details: Homo sapiens, NCI-H719
Description: SANGER: Inhibition of human NCI-H719 cell growth in a cell viability assay.

ARH-77 = test: cells; type: functional, cell-based, Homo sapiens; details: Homo sapiens, ARH-77
Description: SANGER: Inhibition of human ARH-77 cell growth in a cell viability assay.

SF-295 = test: cells; type: functional, cell-based, Homo sapiens; details: Homo sapiens, SF-295
Description: SANGER: Inhibition of human SF295 cell growth in a cell viability assay.

COLO-678 = test: cells; type: functional, cell-based, Homo sapiens; details: Homo sapiens, COLO-678
Description: SANGER: Inhibition of human COLO-678 cell growth in a cell viability assay.

COLO-741 = test: cells; type: functional, cell-based, Homo sapiens; details: Homo sapiens, COLO-741
Description: SANGER: Inhibition of human COLO-741 cell growth in a cell viability assay.

647-V = test: cells; type: functional, cell-based, Homo sapiens; details: Homo sapiens, 647-V
Description: SANGER: Inhibition of human 647-V cell growth in a cell viability assay.

NCI-H1651 = test: cells; type: functional, cell-based, Homo sapiens; details: Homo sapiens, NCI-H1651
Description: SANGER: Inhibition of human NCI-H1651 cell growth in a cell viability assay.

RL = test: cells; type: functional, cell-based, Homo sapiens; details: Homo sapiens, RL
Description: SANGER: Inhibition of human RL cell growth in a cell viability assay.

HPAF-II = test: cells; type: functional, cell-based, Homo sapiens; details: Homo sapiens, HPAF-II
Description: SANGER: Inhibition of human HPAF-II cell growth in a cell viability assay.

Hs-578T = test: cells; type: functional, cell-based, Homo sapiens; details: Homo sapiens, Hs-578T
Description: SANGER: Inhibition of human Hs-578-T cell growth in a cell viability assay.

NCI-H2196 = test: cells; type: functional, cell-based, Homo sapiens; details: Homo sapiens, NCI-H2196
Description: SANGER: Inhibition of human NCI-H2196 cell growth in a cell viability assay.

SK-OV-3 = test: cells; type: functional, cell-based, Homo sapiens; details: Homo sapiens, SK-OV-3
Description: SANGER: Inhibition of human SK-OV-3 cell growth in a cell viability assay.

HCT-116 = test: cells; type: functional, cell-based, Homo sapiens; details: Homo sapiens, HCT-116
Description: SANGER: Inhibition of human HCT-116 cell growth in a cell viability assay.

COR-L279 = test: SANGER: Inhibition of human COR-L279 cell growth in a cell viability assay.; type: functional, cell-based; details: Homo sapiens, COR-L279
HN = test: cells; type: functional, cell-based, Homo sapiens; details: Homo sapiens, HN
Description: SANGER: Inhibition of human HN cell growth in a cell viability assay.

KYSE-520 cell line = test: cells; type: functional, cell-based, Homo sapiens; details: Homo sapiens, KYSE-520
Description: SANGER: Inhibition of human KYSE-520 cell growth in a cell viability assay.

NB1 = test: cells; type: functional, cell-based, Homo sapiens; details: Homo sapiens, NB1
Description: SANGER: Inhibition of human NB1 cell growth in a cell viability assay.

PFSK-1 = test: cells; type: functional, cell-based, Homo sapiens; details: Homo sapiens, PFSK-1
Description: SANGER: Inhibition of human PFSK-1 cell growth in a cell viability assay.

M059J = test: cells; type: functional, cell-based, Homo sapiens; details: Homo sapiens, M059J
Description: SANGER: Inhibition of human M059J cell growth in a cell viability assay.

LC4-1 = test: cells; type: functional, cell-based, Homo sapiens; details: Homo sapiens, LC4-1
Description: SANGER: Inhibition of human LC4-1 cell growth in a cell viability assay.

Daoy = test: cells; type: functional, cell-based, Homo sapiens; details: Homo sapiens, Daoy
Description: SANGER: Inhibition of human Daoy cell growth in a cell viability assay.

KOSC-2 = test: cells; type: functional, cell-based, Homo sapiens; details: Homo sapiens, KOSC-2
Description: SANGER: Inhibition of human KOSC-2 cell growth in a cell viability assay.

CHP-126 = test: cells; type: functional, cell-based, Homo sapiens; details: Homo sapiens, CHP-126
Description: SANGER: Inhibition of human CHP-126 cell growth in a cell viability assay.

JIYOYE = test: cells; type: functional, cell-based, Homo sapiens; details: Homo sapiens, JIYOYE
Description: SANGER: Inhibition of human JiyoyeP-2003 cell growth in a cell viability assay.

HCC1806 = test: cells; type: functional, cell-based, Homo sapiens; details: Homo sapiens, HCC1806
Description: SANGER: Inhibition of human HCC1806 cell growth in a cell viability assay.

LP-1 = test: cells; type: functional, cell-based, Homo sapiens; details: Homo sapiens, LP-1
Description: SANGER: Inhibition of human LP-1 cell growth in a cell viability assay.

NCI-H1755 = test: cells; type: functional, cell-based, Homo sapiens; details: Homo sapiens, NCI-H1755
Description: SANGER: Inhibition of human NCI-H1755 cell growth in a cell viability assay.

SK-MEL-28 = test: cells; type: functional, cell-based, Homo sapiens; details: Homo sapiens, SK-MEL-28
Description: SANGER: Inhibition of human SK-MEL-28 cell growth in a cell viability assay.

ChaGo-K-1 = test: cells; type: functional, cell-based, Homo sapiens; details: Homo sapiens, ChaGo-K-1
Description: SANGER: Inhibition of human ChaGo-K-1 cell growth in a cell viability assay.

MEL-HO = test: cells; type: functional, cell-based, Homo sapiens; details: Homo sapiens, MEL-HO
Description: SANGER: Inhibition of human MEL-HO cell growth in a cell viability assay.

G-361 = test: cells; type: functional, cell-based, Homo sapiens; details: Homo sapiens, G-361
S-117 = test: cells; type: functional, cell-based, Homo sapiens; details: Homo sapiens, S-117
Description: SANGER: Inhibition of human S-117 cell growth in a cell viability assay.

SNU-449 = test: cells; type: functional, cell-based, Homo sapiens; details: Homo sapiens, SNU-449
Description: SANGER: Inhibition of human SNU-449 cell growth in a cell viability assay.

## CCC/C=C/C=C/C(=O)O[C@H]1/C(=C/C(=O)OC)C[C@H]2C[C@H]([C@@H](C)O)OC(=O)C[C@H](O)C[C@@H]3C[C@H](OC(C)=O)C(C)(C)[C@](O)(C[C@@H]4C/C(=C/C(=O)OC)C[C@H](/C=C/C(C)(C)[C@]1(O)O2)O4)O3 [BRYOSTATIN 1]
TCC-SUP
  IC50: > 8 nM
SCC-3
  IC50: > 8 nM
SCLC-21H
  IC50: > 8 nM
U-118-MG
  IC50: > 8 nM
THP-1
  IC50: > 8 nM
KYSE-510
  IC50: > 8 nM
NCI-H748
  IC50: > 8 nM
OVCAR-8
  IC50: > 8 nM
KYSE-180
  IC50: > 8 nM
KYSE-70 cell line
  IC50: > 8 nM
SW626
  IC50: > 8 nM
YKG-1
  IC50: 4.13 nM
SUP-T1
  IC50: > 8 nM
NCI-H522
  IC50: > 8 nM
SNU-423
  IC50: > 8 nM
NCI-H719
  IC50: > 8 nM
ARH-77
  IC50: > 8 nM
SF-295
  IC50: > 8 nM
COLO-678
  IC50: > 8 nM
COLO-741
  IC50: > 8 nM
647-V
  IC50: > 8 nM
NCI-H1651
  IC50: > 8 nM
RL
  IC50: > 8 nM
HPAF-II
  IC50: > 8 nM
Hs-578T
  IC50: > 8 nM
NCI-H2196
  IC50: > 8 nM
SK-OV-3
  IC50: > 8 nM
HCT-116
  IC50: > 8 nM
COR-L279
  IC50: > 8 nM
HN
  IC50: > 8 nM
KYSE-520 cell line
  IC50: > 8 nM
NB1
  IC50: > 8 nM
PFSK-1
  IC50: > 8 nM
M059J
  IC50: 2 nM
LC4-1
  IC50: > 8 nM
Daoy
  IC50: > 8 nM
KOSC-2
  IC50: > 8 nM
CHP-126
  IC50: > 8 nM
JIYOYE
  IC50: > 8 nM
HCC1806
  IC50: > 8 nM
LP-1
  IC50: > 8 nM
NCI-H1755
  IC50: > 8 nM
SK-MEL-28
  IC50: > 8 nM
ChaGo-K-1
  IC50: > 8 nM
MEL-HO
  IC50: > 8 nM
G-361
  IC50: > 8 nM
S-117
  IC50: 5.92 nM
SNU-449
  IC50: > 8 nM

## COC1=CC(c2cc3ccccc3[nH]2)=N/C1=C\c1[nH]c(C)cc1C [OBATOCLAX MESYLATE]
TCC-SUP
  IC50: 1250 nM
SCC-3
  IC50: 446 nM
SCLC-21H
  IC50: 12200 nM
U-118-MG
  IC50: 409 nM
THP-1
  IC50: 20 nM
KYSE-510
  IC50: < 62.5 nM
NCI-H748
  IC50: 10600 nM
OVCAR-8
  IC50: 31.1 nM
KYSE-180
  IC50: 61.4 nM
KYSE-70 cell line
  IC50: 69.5 nM
SW626
  IC50: 72 nM
YKG-1
  IC50: 163 nM
SUP-T1
  IC50: 29.5 nM
NCI-H522
  IC50: 181 nM
SNU-423
  IC50: 129 nM
NCI-H719
  IC50: 4150 nM
ARH-77
  IC50: 110 nM
SF-295
  IC50: 340 nM
COLO-678
  IC50: 3380 nM
COLO-741
  IC50: 316 nM
647-V
  IC50: 104 nM
NCI-H1651
  IC50: 497 nM
RL
  IC50: > 16000 nM
HPAF-II
  IC50: 1940 nM
Hs-578T
  IC50: 183 nM
NCI-H2196
  IC50: 3350 nM
SK-OV-3
  IC50: 524 nM
HCT-116
  IC50: 88 nM
COR-L279
  IC50: 572 nM
HN
  IC50: < 62.5 nM
KYSE-520 cell line
  IC50: 483 nM
NB1
  IC50: 279 nM
PFSK-1
  IC50: 1210 nM
M059J
  IC50: 1360 nM
LC4-1
  IC50: 514 nM
Daoy
  IC50: 56.2 nM
KOSC-2
  IC50: 9630 nM
CHP-126
  IC50: 1570 nM
JIYOYE
  IC50: 203 nM
HCC1806
  IC50: 124 nM
LP-1
  IC50: 213 nM
NCI-H1755
  IC50: 5230 nM
SK-MEL-28
  IC50: 1230 nM
ChaGo-K-1
  IC50: 612 nM
MEL-HO
  IC50: 23.5 nM
G-361
  IC50: < 62.5 nM
S-117
  IC50: 29.1 nM
SNU-449
  IC50: 208 nM
